This experiment addresses BRAF^V600E protein (Homo sapiens, UniProt P15056, V600E). Briefly: HiBiT cellular BRAF V600E degradation assay. The class given is cell-based. The following applies: 24 h incubation; for DC50: A375.10 cells (HiBiT tag knocked in at N-terminal of BRAF V600E), concentration at which 50% of total cellular BRAF V600E is degraded; for Emax: read-out: HiBit 24 h Emax.
The mark [1] stands for this setting: A375.10 cells, Emax = amount of residual protein remaining in the cell after compound treatment.

The structures appear in SMILES notation.

BRAF^V600E protein, sequence (P15056 whole entry V600E): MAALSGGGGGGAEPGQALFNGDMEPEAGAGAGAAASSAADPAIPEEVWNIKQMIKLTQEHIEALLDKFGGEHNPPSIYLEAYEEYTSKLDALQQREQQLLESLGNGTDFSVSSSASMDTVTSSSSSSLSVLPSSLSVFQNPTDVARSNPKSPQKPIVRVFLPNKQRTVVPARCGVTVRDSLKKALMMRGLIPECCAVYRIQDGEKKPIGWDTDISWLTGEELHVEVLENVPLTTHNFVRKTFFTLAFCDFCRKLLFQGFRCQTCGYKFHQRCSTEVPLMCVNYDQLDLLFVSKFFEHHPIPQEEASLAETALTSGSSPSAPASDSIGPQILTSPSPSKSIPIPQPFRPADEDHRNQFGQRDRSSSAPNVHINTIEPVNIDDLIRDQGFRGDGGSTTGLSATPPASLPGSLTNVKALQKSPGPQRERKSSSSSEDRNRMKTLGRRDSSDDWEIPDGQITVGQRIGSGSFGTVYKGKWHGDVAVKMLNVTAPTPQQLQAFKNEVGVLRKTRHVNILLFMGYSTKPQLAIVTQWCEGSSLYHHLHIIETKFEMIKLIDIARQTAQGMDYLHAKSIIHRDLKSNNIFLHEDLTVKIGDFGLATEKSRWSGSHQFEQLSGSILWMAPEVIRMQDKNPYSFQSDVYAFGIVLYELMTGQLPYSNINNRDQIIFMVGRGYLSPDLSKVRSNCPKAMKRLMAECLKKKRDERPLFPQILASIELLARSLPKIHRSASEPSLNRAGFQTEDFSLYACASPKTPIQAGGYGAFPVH

Take `CCN(C)S(=O)(=O)Nc1ccc(F)c(C(=O)c2c[nH]c3ncc(-c4cnc(N5CCN(C(=O)CC6CCN(c7ccc(NC8CCC(=O)NC8=O)cc7F)CC6)CC5)nc4)cc23)c1F` (stereo not drawn) [Example 42, 5-[2-[4-[2-[1-[4-[(2,6-dioxo-3-piperidyl)amino]-2-fluoro-phenyl]-4-piperidyl]acetyl]piperazin-1-yl]pyrimidin-5-yl]-3-[3-[[ethyl(methyl)sulfamoyl]amino]-2,6-difluoro-benzoyl]-1H-pyrrolo[2,3-b]pyridine]: the DC50 is 3.41 nM. Besides, the Emax under setting [1] is 11.5%.

Turning to `CCN(C)S(=O)(=O)Nc1ccc(F)c(C(=O)c2c[nH]c3ncc(-c4cnc(N5CCN(C(=O)CC6CCN(c7ccc8c(c7)n(C)c(=O)n8C7CCC(=O)NC7=O)CC6)CC5)nc4)cc23)c1F` (stereo not drawn) [Example 43, 1-(2,6-dioxo-3-piperidyl)-5-[4-[2-[4-[5-[3-[3-[[ethyl(methyl)sulfamoyl]amino]-2,6-difluoro-benzoyl]-1H-pyrrolo[2,3-b]pyridin-5-yl]pyrimidin-2-yl]piperazin-1-yl]-2-oxo-ethyl]-1-piperidyl]-3-methyl-2-oxo-benzimidazole], it took 22.1 nM to reach half-maximal degradation (DC50). Also, under setting [1], the Emax is 35.2%.

`CCN(C)S(=O)(=O)Nc1ccc(F)c(C(=O)c2c[nH]c3ncc(-c4cnc(N5CCN(C(=O)CN6CCC(c7ccc(N8CCC(=O)NC8=O)cc7F)CC6)CC5)nc4)cc23)c1F` [Example 44, 5-[2-[4-[2-[4-[4-(2,4-dioxohexahydropyrimidin-1-yl)-2-fluoro-phenyl]-1-piperidyl]acetyl]piperazin-1-yl]pyrimidin-5-yl]-3-[3-[[ethyl(methyl)sulfamoyl]amino]-2,6-difluoro-benzoyl]-1H-pyrrolo[2,3-b]pyridine]: half-maximal degradation (DC50) was put at 41.3 nM. Besides, under setting [1], the Emax turned out to be 13.2%.

The compound `CCN(C)S(=O)(=O)Nc1ccc(F)c(C(=O)c2c[nH]c3ncc(-c4cnc(N5CCN(C(=O)CC6CCN(c7c(F)cc(NC8CCC(=O)NC8=O)cc7F)CC6)CC5)nc4)cc23)c1F` (stereo not drawn) [Example 45, 5-[2-[4-[2-[1-[4-[(2,6-dioxo-3-piperidyl)amino]-2,6-difluoro-phenyl]-4-piperidyl]acetyl]piperazin-1-yl]pyrimidin-5-yl]-3-[3-[[ethyl(methyl)sulfamoyl]amino]-2,6-difluoro-benzoyl]-1H-pyrrolo[2,3-b]pyridine] yielded a DC50 of 23.6 nM. In addition, under setting [1], the Emax came out at 14.2%.

`CCN(C)S(=O)(=O)Nc1ccc(F)c(C(=O)c2c[nH]c3ncc(-c4cnc(N5CCN(C(=O)CN6CCC(c7c(F)cc(NC8CCC(=O)NC8=O)cc7F)CC6)CC5)nc4)cc23)c1F` (stereo not drawn) [Example 46, 5-[2-[4-[2-[4-[4-[(2,6-dioxo-3-piperidyl)amino]-2,6-difluoro-phenyl]-1-piperidyl]acetyl]piperazin-1-yl]pyrimidin-5-yl]-3-[3-[[ethyl(methyl)sulfamoyl]amino]-2,6-difluoro-benzoyl]-1H-pyrrolo[2,3-b]pyridine]: the DC50 turned out to be 9.1 nM. In addition, the Emax under setting [1] was 7.88%.

The compound `CCN(C)S(=O)(=O)Nc1ccc(F)c(C(=O)c2c[nH]c3ncc(-c4cnc(N5CCN(C(=O)CC6CCN(c7ccc8c(C9CCC(=O)NC9=O)nn(C)c8c7)CC6)CC5)nc4)cc23)c1F` (stereo not drawn) [Example 47, 3-(2,6-dioxo-3-piperidyl)-6-[4-[2-[4-[5-[3-[3-[[ethyl(methyl)sulfamoyl]amino]-2,6-difluoro-benzoyl]-1H-pyrrolo[2,3-b]pyridin-5-yl]pyrimidin-2-yl]piperazin-1-yl]-2-oxo-ethyl]-1-piperidyl]-1-methyl-indazole] registered a DC50 of 5.38 nM. The maximum response (Emax) under setting [1] amounted to 19.3%.

Take `CCN(C)S(=O)(=O)Nc1ccc(F)c(C(=O)c2c[nH]c3ncc(-c4cnc(N5CCN(C(=O)CC6CCN(c7ccc(NC8CCC(=O)NC8=O)cc7F)C6)CC5)nc4)cc23)c1F` (stereo not drawn) [Example 48, 5-[2-[4-[2-[1-[4-[(2,6-dioxo-3-piperidyl)amino]-2-fluoro-phenyl]pyrrolidin-3-yl]acetyl]piperazin-1-yl]pyrimidin-5-yl]-3-[3-[[ethyl(methyl)sulfamoyl]amino]-2,6-difluoro-benzoyl]-1H-pyrrolo[2,3-b]pyridine]: half-maximal degradation (DC50) was put at 23 nM. Besides, under setting [1], the Emax was 15%.

Compound `CCN(C)S(=O)(=O)Nc1ccc(F)c(C(=O)c2c[nH]c3ncc(-c4cnc(N5CCN(C(=O)CN6CC7(C6)CN(c6ccc(NC8CCC(=O)NC8=O)cc6)C7)CC5)nc4)cc23)c1F` (stereo not drawn) [Example 49, 5-[2-[4-[2-[2-[4-[(2,6-dioxo-3-piperidyl)amino]phenyl]-2,6-diazaspiro[3.3]heptan-6-yl]acetyl]piperazin-1-yl]pyrimidin-5-yl]-3-[3-[[ethyl(methyl)sulfamoyl]amino]-2,6-difluoro-benzoyl]-1H-pyrrolo[2,3-b]pyridine] yielded a DC50 of 24.9 nM. For the same compound, the Emax under setting [1] came out at 17.5%.

`CCN(C)S(=O)(=O)Nc1ccc(F)c(C(=O)c2c[nH]c3ncc(-c4cnc(N5CCN(C(=O)Cc6ccc(N7CCN(C8CCC(=O)NC8=O)C(=O)C7)cc6)CC5)nc4)cc23)c1F` (stereo not drawn) [Example 50, 5-[2-[4-[2-[4-[4-(2,6-dioxo-3-piperidyl)-3-oxo-piperazin-1-yl]phenyl]acetyl]piperazin-1-yl]pyrimidin-5-yl]-3-[3-[[ethyl(methyl)sulfamoyl]amino]-2,6-difluoro-benzoyl]-1H-pyrrolo[2,3-b]pyridine] yielded a DC50 of 4.57 nM. For the same compound, under setting [1], the Emax worked out at 7.42%.

The compound `CCN(C)S(=O)(=O)Nc1ccc(F)c(C(=O)c2c[nH]c3ncc(-c4cnc(N5CCN(C(=O)CC6(O)CCN(c7ccc(NC8CCC(=O)NC8=O)cc7F)C6)CC5)nc4)cc23)c1F` (stereo not drawn) [Example 51, 5-[2-[4-[2-[1-[4-[(2,6-dioxo-3-piperidyl)amino]-2-fluoro-phenyl]-3-hydroxy-pyrrolidin-3-yl]acetyl]piperazin-1-yl]pyrimidin-5-yl]-3-[3-[[ethyl(methyl)sulfamoyl]amino]-2,6-difluoro-benzoyl]-1H-pyrrolo[2,3-b]pyridine] showed a DC50 of 5.51 nM. Under setting [1], the Emax stood at 6.09%.

`CCN(C)S(=O)(=O)Nc1ccc(F)c(C(=O)c2c[nH]c3ncc(-c4cnc(N5CCN(C(=O)CN6CC[C@@H](c7ccc(NC8CCC(=O)NC8=O)cc7)C(F)(F)C6)CC5)nc4)cc23)c1F` (stereo partly drawn) [Example 54, 5-[2-[4-[2-[(4S)-4-[4-[(2,6-dioxo-3-piperidyl)amino]phenyl]-3,3-difluoro-1-piperidyl]acetyl]piperazin-1-yl]pyrimidin-5-yl]-3-[3-[[ethyl(methyl)sulfamoyl]amino]-2,6-difluoro-benzoyl]-1H-pyrrolo[2,3-b]pyridine]: the DC50 worked out at 4.72 nM. Besides, the Emax under setting [1] came to 6.94%.

Take `CCN(C)S(=O)(=O)Nc1ccc(F)c(C(=O)c2c[nH]c3ncc(-c4cnc(N5CCN(C(=O)CN6CC[C@H](c7ccc(NC8CCC(=O)NC8=O)cc7)C(F)(F)C6)CC5)nc4)cc23)c1F` (stereo partly drawn) [Example 55, 5-[2-[4-[2-[(4R)-4-[4-[(2,6-dioxo-3-piperidyl)amino]phenyl]-3,3-difluoro-1-piperidyl]acetyl]piperazin-1-yl]pyrimidin-5-yl]-3-[3-[[ethyl(methyl)sulfamoyl]amino]-2,6-difluoro-benzoyl]-1H-pyrrolo[2,3-b]pyridine]: the DC50 was determined as 4.61 nM. Besides, the “HiBit 24 h Emax” value under setting [1] is 6.57%.
